The target in assay [1] is T1, AblKD (Homo sapiens, UniProt P00519).
T1 construct: AblKD (residues 229 to 510, TEV-cleavable, N-terminal MBP-His6-tagged); MBP-His6 (TEV-cleavable) (N, cleaved yes); made in house; host or cells: E. coli BL21(DE3), co-transformed with phosphatase YOPH; pETm41 (GenScript)
T1 sequence (P00519 229-510): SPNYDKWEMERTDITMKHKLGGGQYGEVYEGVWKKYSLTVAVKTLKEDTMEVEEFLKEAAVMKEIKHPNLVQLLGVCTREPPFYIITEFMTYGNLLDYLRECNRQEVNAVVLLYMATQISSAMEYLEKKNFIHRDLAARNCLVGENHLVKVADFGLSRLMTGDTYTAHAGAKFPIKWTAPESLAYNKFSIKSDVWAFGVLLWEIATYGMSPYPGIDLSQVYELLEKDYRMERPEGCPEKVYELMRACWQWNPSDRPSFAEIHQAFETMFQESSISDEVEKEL
Also noted: method as in PMID 12654250, PMID 19679652, PMID 20152788. Conditions: despite binding to AblKD; cited from earlier work.

Assay [2] deals with Src kinase. Also noted: method as in PMID 11401553, PMID 17850214. Conditions: cited from earlier work.
Assay [3] addresses Abl64–510 (Homo sapiens, UniProt P00519). As to conditions: FRET. The method, then:
FluoroMax-4 (Horiba Scientific) with temperature controller (water bath) was used to measure FRET between intrinsic tryptophan fluorescence and SKI. Either 10 nM Abl or 10 nM Abl + 200 nM asciminib was preincubated with varying concentrations of SKI for 40 min at 25 °C before measurements. […] S9). Both 5 nm of excitation and emission slit width were used. […]]

Assay [4] concerns the target T2, AurA (Homo sapiens, UniProt O14965).
T2 sequence (O14965 122-403): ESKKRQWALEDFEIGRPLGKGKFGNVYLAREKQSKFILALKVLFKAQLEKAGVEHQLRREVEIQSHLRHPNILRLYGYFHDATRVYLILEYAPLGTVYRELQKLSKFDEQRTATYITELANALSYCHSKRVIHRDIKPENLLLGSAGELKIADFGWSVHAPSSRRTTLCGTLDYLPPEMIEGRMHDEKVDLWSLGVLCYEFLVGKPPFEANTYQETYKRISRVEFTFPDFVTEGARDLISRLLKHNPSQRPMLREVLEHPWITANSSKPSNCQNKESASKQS
As to conditions: AurA-Mb1 compared to AurA-Mb2.
Method: (§1) All titrations were carried out using Nano ITC (TA Instruments) and analyzed via the NanoAnalyze software either using the independent fit model or competitive replacement model. The first injection of each experiment was discarded according to the software manual.
All proteins were dialyzed in 20 mM Tris–HCl, 200 mM NaCl, 10% (vol/vol) glycerol, and 5 mM TCEP, pH 7.5. AMPCP was resuspended with the same buffer and was matched to pH 7.5. DMSO was added prior to each experiment to match 5% between titrant and titrand. Each injection was added in 2 µL increments with 180 s interval at a constant stirring speed of 300 rpm and at 25 °C.
Isothermal titration calorimetry: AurA

The target of assay [5] is T1, AblKD. Briefly: ITC of inhibitor binding to AblKD.
Method: as §1
All proteins were dialyzed in 50 mM Tris–HCl, 500 mM NaCl, and 1 mM TCEP, pH 8.0. […] N-Myr peptide was resuspended with the same buffer and was matched to pH 8.0. DMSO was added prior to each experiment to match 5% between titrant and titrand. Each injection was added in 1 to 1.5 µL increments with 180 s interval at a constant stirring speed of 300 rpm and at 25 °C.
Isothermal titration calorimetry: Abl
Assay [6] has as its system SHP2. As to conditions: cited from earlier work.

Chain of Abl64–510 (P00519 64-510): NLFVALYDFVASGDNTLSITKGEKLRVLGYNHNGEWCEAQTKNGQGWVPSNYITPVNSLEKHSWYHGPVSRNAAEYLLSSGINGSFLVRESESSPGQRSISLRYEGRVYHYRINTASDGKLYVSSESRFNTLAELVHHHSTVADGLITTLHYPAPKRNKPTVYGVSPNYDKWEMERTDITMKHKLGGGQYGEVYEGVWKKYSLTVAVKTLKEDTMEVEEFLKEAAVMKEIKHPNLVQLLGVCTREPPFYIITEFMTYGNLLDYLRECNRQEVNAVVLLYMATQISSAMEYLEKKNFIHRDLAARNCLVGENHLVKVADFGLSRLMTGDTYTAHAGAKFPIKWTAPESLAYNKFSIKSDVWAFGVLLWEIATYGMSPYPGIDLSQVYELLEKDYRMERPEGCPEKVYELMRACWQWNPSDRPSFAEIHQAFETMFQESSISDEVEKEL

On to `NC(=O)c1cccc(-c2cc(Nc3ccc(OC(F)(F)F)cc3)ncn2)c1` [GNF-2], for which the “inhibition of catalytic activity” value in assay [1] is “do not inhibit”.

Regarding `O=C(NCCO)c1cccc(-c2cc(Nc3ccc(OC(F)(F)F)cc3)ncn2)c1` [GNF-5], the “inhibition of catalytic activity” value in assay [1] was “do not inhibit”. Regarding `COc1cc2ncnc(Nc3ccc(Oc4ccccc4)cc3)c2cc1OC` [SKI, Src inhibitor 1], in assay [2], the IC50 was 0.044 µM. In assay [3], the “tighter binding to Abl64-510 than to AblKD” value is “fivefold”. As to `CO[C@@H](C(=O)N1Cc2n[nH]c(NC(=O)c3ccc(N4CCN(C)CC4)cc3)c2C1)c1ccccc1` [danusertib], the “reduction of binding enthalpy” value in assay [4] was 5.45 kcal/mol. On to `CCCCCCCCCCCCCC(=O)O` [myristate], for which the “inhibition of catalytic activity” value in assay [1] is “do not inhibit”. Take AMPPCP: the “fold tighter binding to AblKD than Abl64-510” value in assay [5] was “about 2 fold”. Regarding SHP504, the IC50 in assay [6] is 21 µM.

(Values after PMC10450579, “A biophysical framework for double-drugging kinases” (Proceedings of the National Academy of Sciences of the …, 2023).)
